The text below walks through data of PubChem BioAssay (NCI).

Some test systems named below: UACC-62 melanoma; SN12C renal; COLO 205 colon; M14 melanoma; HL-60(TB) leukemia; OVCAR-4 ovarian; RPMI-8226 leukemia; U251 CNS; CCRF-CEM leukemia; HCC-2998 colon.
Experiment in all cases: NCI-60 cell line screen, 48 h

Values joined by “and” are separate entries in the source; they are usually repeats but may differ in a detail not shown here. Equal entries are not always repeated.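 Five concentrations, 48 hours, 96-well plates. Here, GI50 denotes the concentration required for 50% inhibition of growth. The concentration for full growth arrest is given as TGI.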

For `CC([C@H]1CCC2C3CCC4C(=O)C(NC=O)=CC[C@]4(C)C3CC[C@@]21C)N(C)C` (stereo partly specified), the GI50 was 1.94 µM in the assay with UACC-62 melanoma; 2.92 µM in the assay on SN12C renal; 1.75 µM in the assay on COLO 205 colon; 2.08 µM in the assay with M14 melanoma; 1.86 µM in the assay with HL-60(TB) leukemia; 5.12 µM in the assay with OVCAR-4 ovarian. Also, the GI50 in the assay with RPMI-8226 leukemia is 2.75 µM; in the assay on U251 CNS, 3.43 µM; in the assay on CCRF-CEM leukemia, 3.24 µM; with HCC-2998 colon, 4.09 µM. Also, the TGI with UACC-62 melanoma came to 3.98 µM; in the assay on SN12C renal it was 14.9 µM; in the assay on COLO 205 colon it was 3.4 µM; in the assay on M14 melanoma, 4.39 µM; in the assay on HL-60(TB) leukemia, 4.95 µM; with OVCAR-4 ovarian it was 26.6 µM. The TGI with RPMI-8226 leukemia was 18 µM; with U251 CNS, 15.2 µM; in the assay on CCRF-CEM leukemia, 18.7 µM; with HCC-2998 colon, 14.7 µM.

As for `CN1CCN(c2nc(C3=C(c4c[nH]c5ccccc45)C(=O)NC3=O)c3ccccc3n2)CC1`, the GI50 is 14.4 µM and 16.2 µM in the assay on UACC-62 melanoma; 9.03 µM and 12.9 µM with SN12C renal; 8 µM and 11.4 µM in the assay on COLO 205 colon; 10.5 µM and 17 µM in the assay with M14 melanoma; 12.3 µM and 15.1 µM in the assay with HL-60(TB) leukemia; 18.9 µM and 16.2 µM with OVCAR-4 ovarian. Besides, the GI50 in the assay with RPMI-8226 leukemia is 12.6 µM; with U251 CNS, 22.5 µM and 13.4 µM; in the assay on CCRF-CEM leukemia, 28.9 µM and 14 µM; in the assay with HCC-2998 colon it was 11.2 µM and 19 µM. The TGI with UACC-62 melanoma was 35.2 µM and 30.7 µM; in the assay with SN12C renal, 28.5 µM and 35.5 µM; in the assay with COLO 205 colon, 17.3 µM and 24.5 µM; in the assay with M14 melanoma it was 20.5 µM and 37.6 µM; in the assay on HL-60(TB) leukemia, 36.6 µM and 35.6 µM; with OVCAR-4 ovarian it was 65 µM and 69.1 µM. The TGI was 37.6 µM in the assay on RPMI-8226 leukemia; 65 µM and 27.7 µM in the assay with U251 CNS; 65 µM and 62.8 µM with CCRF-CEM leukemia; 22.6 µM and 36.7 µM with HCC-2998 colon.

For `COc1cccc(-n2cnc3c(N/N=C/c4ccncc4)ncnc32)c1`, the GI50 was 8.2 µM with UACC-62 melanoma; 13.2 µM with SN12C renal; 11.4 µM with COLO 205 colon; 10.3 µM in the assay with M14 melanoma; over 25 µM with HL-60(TB) leukemia; 11.6 µM in the assay on OVCAR-4 ovarian. Also, the GI50 with RPMI-8226 leukemia, in the assay on U251 CNS, in the assay on CCRF-CEM leukemia and with HCC-2998 colon was over 25 µM in each case. Also, the TGI with UACC-62 melanoma, in the assay on SN12C renal, in the assay on COLO 205 colon, in the assay with M14 melanoma, in the assay on HL-60(TB) leukemia and in the assay on OVCAR-4 ovarian was over 25 µM each time. Also, the TGI in the assay with RPMI-8226 leukemia, in the assay on U251 CNS, in the assay with CCRF-CEM leukemia and in the assay with HCC-2998 colon was over 25 µM throughout.

Consider `COC(=O)c1ccc2n[se]nc2c1`, for which the TGI in the assay with UACC-62 melanoma, with SN12C renal, in the assay with M14 melanoma, in the assay on HL-60(TB) leukemia, in the assay with OVCAR-4 ovarian and with RPMI-8226 leukemia was over 100 µM throughout. Also, the TGI in the assay with U251 CNS, with CCRF-CEM leukemia and with HCC-2998 colon was over 100 µM in each case.

Regarding `CC(C)=CCNc1ncnc2c1ncn2C1OC(COP(=O)(O)O)C(O)C1O` (stereo unspecified), the GI50 in the assay with UACC-62 melanoma was 9.03 µM; with SN12C renal, 3.94 µM; in the assay on COLO 205 colon, 4.59 µM; in the assay on M14 melanoma, 10.4 µM; with HL-60(TB) leukemia, 1.94 µM; in the assay on OVCAR-4 ovarian it was 5.01 µM. Also, the GI50 in the assay with RPMI-8226 leukemia is 42.8 µM; in the assay on U251 CNS, over 100 µM; in the assay on CCRF-CEM leukemia, 3.32 µM; with HCC-2998 colon it was 10.7 µM. In addition, the TGI with UACC-62 melanoma is over 100 µM; in the assay with SN12C renal it was over 100 µM; in the assay on COLO 205 colon it was over 58.8 µM; in the assay on M14 melanoma it was over 100 µM; in the assay with HL-60(TB) leukemia it was 6.33 µM; with OVCAR-4 ovarian it was 34.3 µM. Further, the TGI with RPMI-8226 leukemia, with U251 CNS, in the assay on CCRF-CEM leukemia and with HCC-2998 colon was over 100 µM each time.

As to `Oc1ccc(Br)cc1CN1CCN(Cc2ccc(Cl)cc2)CC1`, the GI50 was 17.6 µM with UACC-62 melanoma; 27.1 µM in the assay on SN12C renal; 21.7 µM with COLO 205 colon; 22.8 µM with HL-60(TB) leukemia; 11.8 µM in the assay on OVCAR-4 ovarian; 14.4 µM in the assay on RPMI-8226 leukemia. In addition, the GI50 with U251 CNS was 27.7 µM; with CCRF-CEM leukemia, 24.3 µM; in the assay with HCC-2998 colon it was 30.8 µM. Further, the TGI was over 100 µM with UACC-62 melanoma; over 100 µM in the assay with SN12C renal; 51.1 µM in the assay on COLO 205 colon; 66.5 µM in the assay on HL-60(TB) leukemia; 86.3 µM with OVCAR-4 ovarian; over 100 µM in the assay with RPMI-8226 leukemia. Also, the TGI with U251 CNS, in the assay on CCRF-CEM leukemia and with HCC-2998 colon was over 100 µM throughout.

For the compound `COc1ccc(NC(=O)CC(=O)n2nc(-c3ccccc3)c(N=Nc3ccc(C)cc3)c2-c2ccccc2)cc1`, the TGI was 49.5 µM in the assay on UACC-62 melanoma; 81.9 µM in the assay with SN12C renal; over 100 µM with COLO 205 colon; over 100 µM in the assay with M14 melanoma; over 100 µM in the assay on HL-60(TB) leukemia; 53.8 µM with OVCAR-4 ovarian. In addition, the TGI is over 100 µM in the assay with RPMI-8226 leukemia, 47.5 µM with U251 CNS, over 100 µM in the assay on CCRF-CEM leukemia and over 100 µM in the assay with HCC-2998 colon.

As to `COC1=C(C(=O)OC(C)(C)C)C23CCCCC2(C(C(=O)OC(C)(C)C)=C(OC)C3C(=O)OC(C)(C)C)C1C(=O)OC(C)(C)C` (stereo unspecified), the TGI in the assay on UACC-62 melanoma was over 100 µM; in the assay on SN12C renal, over 100 µM; with COLO 205 colon it was 32.8 µM; with M14 melanoma, over 100 µM; in the assay with HL-60(TB) leukemia, 63.1 µM; in the assay on OVCAR-4 ovarian, over 100 µM. For the same compound, the TGI with RPMI-8226 leukemia, with U251 CNS, with CCRF-CEM leukemia and with HCC-2998 colon was over 100 µM in each case.

Regarding `Clc1cc(Cl)c2n[se]nc2c1`, the TGI in the assay on UACC-62 melanoma, in the assay with SN12C renal, in the assay on M14 melanoma, in the assay with HL-60(TB) leukemia, with OVCAR-4 ovarian and with RPMI-8226 leukemia was over 100 µM throughout. The TGI in the assay on U251 CNS, in the assay on CCRF-CEM leukemia and in the assay with HCC-2998 colon was over 100 µM in each case.
